Assays:
[1] = system: Ristocetin-induced thrombocyte aggregation; experiment: Ristocetin-induced thrombocyte aggregation, donor human thrombocyte enriched plasm; type: cell-based; settings: ristocetin inductor; for MA (60 c), %: amplitude at 60 s
Experimental: (§1) The study of antiaggregant and anticoagulant properties of N,N′-substituted piperazines on the sample of donor human blood. The blood was collected by donor ulnar vein punction with dry sharp needle without syringe. The administration of drugs that influence on thrombocyte function was cancelled in 7÷10 days before the experiment.
(§2) In graduated plastic centrifuge tube 1 ml of 3.8% basic trisodium citrate solution with pH=7.4 was placed. The ulnar vein was punctuated, the freely effluent blood was collected up to 10 ml mark, the mixture was instantly stirred to prevent air bubbles appearance. The collected and stabilized blood was split in two 5 ml portions in two tubes.
(§3) To obtain thrombocyte enriched plasm the stabilized blood was spinned at 1000 rpm (150 g) for 8 min at room temperature. The repeated spinning of the blood at 3200 rpm (2300 g) for 20 min at 22° C. yielded thrombocyte depleted plasm.
(§4) The study of anticoagulant activity was done within 2 h after thrombocyte enriched plasm obtaining. The plasm was normalized to achieve thrombocyte concentration of 200-250×10^9/L by addition of thrombocyte-free plasm. The concentration of thrombocytes was measured on SOLAR AR 2110 analyzer.
(§5) Antiaggregant properties of N,N′-substituted piperazines were evaluated by their influence on thrombocyte aggregation in tests with ADP-, collagen- and ristocetin-induced aggregation. To dissolve N,N′-substituted piperazines and to dilute reagents Tris-HCl-buffer with pH=7.4 was used.
(§6) As the general characteristic of thrombocyte aggregation activity the maximum amplitude (MA) of aggregation was taken on. That is the peak value of transmittance coefficient of the sample after aggregation agent introduction expressed in % relative to the transmittance of thrombocyte-free plasm. The response was registered on ascending linear segment of aggregation curve for 16 s.
(§7) The measurements were done using 4-channel CHRONO-LOG 490-4D analyzer (CHRONO-LOG, USA). The temperature in the cell was 37° C., the spinning speed of magnetic stirrer was 1200 rpm.
(§8) In a cuvette 0.5 ml of N,N′-substituted piperazine solution was placed, then 0.4 ml of normalized thrombocyte plasm was added. The mixture was stirred and incubated at 37° C. for 5 min. The cuvette was placed in aggregometer, then 0.05 ml of aggregation inductor solution was added (ADP or collagen or ristocetin). Thrombocyte aggregation was measured for 3 min.
To study ristocetin-induced thrombocyte aggregation CHRONO-PAR RISTOCETIN reagent (CHRONO-LOG, USA) was diluted with buffer solution until ristocetin concentration reached 12 mg/ml. Thrombocyte aggregation amplitude was measured in 60 s after the beginning of the reaction.

[2] = system: mesentery arterioles; experiment: Vasodilator properties, microcirculatory vessel responsiveness to noradrenalin, arterioles; type: in vivo, Wistar male rats
Experimental: Vasodilator properties of N,N′-substituted piperazines were evaluated according to their influence on microcirculatory vessel responsiveness.
The studies were done on Wistar male rats with mass of 300±30 g (laboratory animals nursery “Rappolovo”, RAMS). The animals were kept with unlimited food (standard ration for laboratory rats K-120 by <<Inform-korm>>, Russia) and water allowance.
The solutions of N,N′-substituted piperazines and physiological (control) solution were introduced via bolus injection within 1 min into caudal vein of non-anaesthetized animals according to the dosage of 5.0 ml per 1 kg. Immediately after the introduction the animals were put in separate standard cages for observation.
In 30 min after the injection the animals were anaesthetized (thiopental sodium, 60 mg/kg intraperitoneally). The loop of small intestine adjoined to mesoappendix was retrieved through inferomedian incision. To study microcirculation in mesentery venules and arterioles in transmitted light the rat was placed on thermostated microscope objective table. The application of noradrenalin solution (Aguettant, 2 mg/ml, Laboratoire AGUETTANT, France) was done directly on the mesentery (Furness J. B., Marshall J. M., 1974; Yantareva L. I., 2004).
The study of microcirculatory vessels was done with LUMAM I1 microscope (LOMO, Russia). The recording of video data was done with the camera (Optics and Electronics ISTA Ltd) attached to a personal computer. The processing of data was done with Video-Test 4.0 software (ISTA Ltd., Russia). The diameter of the vessel wall (D, m) before and after the application of noradrenalin and the starting time of blood flow slowdown induced by noradrenalin were measured (the measurements were done for 1 min after the application).

[3] = system: Collagen-induced thrombocyte aggregation; experiment: Collagen-induced thrombocyte aggregation, donor human thrombocyte enriched plasm; type: cell-based; settings: collagen inductor; for MA, %: human thrombocyte plasm
Experimental: as §1, §2, §3, §4, §5, §6, §7, §8
In collagen-induced thrombocyte aggregation test CHRONO-PAR COLLAGEN reagent (CHRONO-LOG, USA) was diluted with buffer solution until collagen concentration reached 10 µg/ml.

[4] = system: experimental photothrombosis; experiment: Experimental photothrombosis model, arterial blood velocity; type: in vivo, Wistar male rats
Experimental: The studies were done on Wistar male rats with mass of 230±30 g (laboratory animals nursery “Rappolovo”, RAMS). The animals were kept with unlimited food (standard ration for laboratory rats K-120 by <<Inform-korm>>, Russia) and water allowance. […]
Thrombosis modeling: the drugs were introduced into left femoral vein, in 50 min afterwards 1 ml of Bengal rose A photosensitizer (Acros Organics, USA) solution was introduced with dose of 17 mg/kg [Boselli 2007, Petrischev 2009]. Then the incision of internal surface of animal right thigh about 2 cm in length was made. The section of the femoral vein about 5 mm in length was released from surrounding tissues and separated from neurovascular bundle. Beneath this section of the vein the black non-transparent plastic strip 3 mm in width was laid to screen off the vein and surrounding tissues from radiation. The irradiation was done using diode laser <<DPSS-laser>> (Diode Pumped Solid State Laser, South Korea) with 532 nm wavelength and 60 mW power. The area of irradiation was 1 mm^2, exposing time was 40 min. The blood flow in femoral artery was measured by high frequency Doppler ultrasonography method (<<Minimax-Doppler-K>> apparatus, frequency of sensor was 20 MHz). The blood velocity alteration due to irradiation was measured (Table 9).

[5] = 0.01 mmol/kg, noradrenalin 10^−6 g/ml
[6] = 0.025 mmol/kg, noradrenalin 10^−7 g/ml

O=C(O)/C=C/c1ccc(Cn2ccnc2)cc1 [Ozagrel, reference compound]
(MAx-MA0): MA0 * 100% (Ozagrel: (MA0-MAx): MA0 * 100%) ([1]; 1.25 mmol/L): 8.0%
MA (60 c), % ([1]; 1.25 mmol/L): 58.6 ± 9.1%
(MAx-MA0): MA0 * 100% (Ozagrel: (MA0-MAx): MA0 * 100%) ([1]; 2.5 mmol/L): 28.4%
MA (60 c), % ([1]; 2.5 mmol/L): 45.6 ± 9.5%
(MAx-MA0): MA0 * 100% (Ozagrel: (MA0-MAx): MA0 * 100%) ([1]; 5.0 mmol/L): 44.1%
MA (60 c), % ([1]; 5.0 mmol/L): 35.6 ± 8.5%
% of vessel constriction [2, 5]: 80%
Blood flow slowdown, Latent period of slowdown [2, 5]: 27 ± 6 s
% of vessel constriction [2, 6]: 27%
Blood flow slowdown, Latent period of slowdown, s [2, 6]: No slowdown
MA, % ([3]; 0.5 mmol/L): 74.3 ± 7.9%
MA, % ([3]; 1.25 mmol/L): 64.1 ± 12.0%
MA, % ([3]; 2.5 mmol/L): 60.0 ± 2.5%
MA, % ([3]; 5.0 mmol/L): 54.0 ± 12.9%
MA, % ([3]; 7.5 mmol/L): 34.2 ± 11.2%
inhibition at 500 µM ([3]; Homo sapiens, 0.5 mmol/L, read-out: (MA0-MAx): MA0 * 100%): 3.1%
inhibition at 1250 µM ([3]; Homo sapiens, 1.25 mmol/L, read-out: (MA0-MAx): MA0 * 100%): 16.4%
inhibition at 2500 µM ([3]; Homo sapiens, 2.5 mmol/L, read-out: (MA0-MAx): MA0 * 100%): 21.8%
inhibition at 5000 µM ([3]; Homo sapiens, 5.0 mmol/L, read-out: (MA0-MAx): MA0 * 100%): 29.6%
inhibition at 7500 µM ([3]; Homo sapiens, 7.5 mmol/L, read-out: (MA0-MAx): MA0 * 100%): 55.4%
V, cm/s (arterial blood velocity) ([4]; 0.01 mmol/kg, 0 min of irradiation): 10.9 ± 2.9 cm/s
V, cm/s (arterial blood velocity) ([4]; 0.01 mmol/kg, 10 min of irradiation): 5.7 ± 1.8 cm/s
V, cm/s (arterial blood velocity) ([4]; 0.01 mmol/kg, 20 min of irradiation): Absence of blood flow
V, cm/s (arterial blood velocity) ([4]; 0.01 mmol/kg, 30 min of irradiation): Absence of blood flow
V, cm/s (arterial blood velocity) ([4]; 0.01 mmol/kg, 40 min of irradiation): Absence of blood flow
V, cm/s (arterial blood velocity) ([4]; 0.025 mmol/kg, 0 min of irradiation): 9.0 ± 2.7 cm/s
V, cm/s (arterial blood velocity) ([4]; 0.025 mmol/kg, 10 min of irradiation): 5.1 ± 1.7 cm/s
V, cm/s (arterial blood velocity) ([4]; 0.025 mmol/kg, 20 min of irradiation): 3.8 ± 1.0 cm/s
V, cm/s (arterial blood velocity) ([4]; 0.025 mmol/kg, 30 min of irradiation): 5.5 ± 1.4 cm/s
V, cm/s (arterial blood velocity) ([4]; 0.025 mmol/kg, 40 min of irradiation): 5.8 ± 1.7 cm/s
